A word on the IC50: it is the concentration that gives 50% inhibition. A lower IC50 goes with higher potency.

For assay [1], the target named is T1, AMP-activated protein kinase, AMPK (Homo sapiens) (UniProt P54646+O43741+P54619+Q9UGJ0+Q9Y478+Q13131+Q9UGI9). Description: Residual activity of AMP-activated Protein Kinase (AMPK) at 50 uM.
Assay [2] deals with T2, Serine/threonine-protein kinase Chk1 (Homo sapiens) (UniProt O14757).
T2 sequence (whole entry): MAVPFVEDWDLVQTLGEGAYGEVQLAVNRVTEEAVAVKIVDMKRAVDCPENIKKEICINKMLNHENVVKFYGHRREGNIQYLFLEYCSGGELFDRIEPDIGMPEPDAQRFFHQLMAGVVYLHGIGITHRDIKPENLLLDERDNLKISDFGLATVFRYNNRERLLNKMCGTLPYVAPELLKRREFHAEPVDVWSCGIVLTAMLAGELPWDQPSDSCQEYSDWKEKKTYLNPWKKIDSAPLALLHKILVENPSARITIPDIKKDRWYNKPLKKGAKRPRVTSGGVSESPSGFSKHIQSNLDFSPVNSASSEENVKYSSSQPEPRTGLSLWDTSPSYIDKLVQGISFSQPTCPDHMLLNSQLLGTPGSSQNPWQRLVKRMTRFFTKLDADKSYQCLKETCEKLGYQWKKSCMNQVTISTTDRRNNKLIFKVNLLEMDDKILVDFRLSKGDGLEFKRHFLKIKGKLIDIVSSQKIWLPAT
The experiment in a line: Residual activity of Serine/threonine-protein kinase Chk1 (CHK1) at 50 uM.

Assay [3] deals with Glycogen synthase kinase-3 beta (Homo sapiens) (UniProt P49841). The experiment in a line: Residual activity of Glycogen synthase kinase-3 beta (GSK3-beta) at 50 uM.
Chain of Glycogen synthase kinase-3 beta (Homo sapiens) (P49841 whole entry, looked up): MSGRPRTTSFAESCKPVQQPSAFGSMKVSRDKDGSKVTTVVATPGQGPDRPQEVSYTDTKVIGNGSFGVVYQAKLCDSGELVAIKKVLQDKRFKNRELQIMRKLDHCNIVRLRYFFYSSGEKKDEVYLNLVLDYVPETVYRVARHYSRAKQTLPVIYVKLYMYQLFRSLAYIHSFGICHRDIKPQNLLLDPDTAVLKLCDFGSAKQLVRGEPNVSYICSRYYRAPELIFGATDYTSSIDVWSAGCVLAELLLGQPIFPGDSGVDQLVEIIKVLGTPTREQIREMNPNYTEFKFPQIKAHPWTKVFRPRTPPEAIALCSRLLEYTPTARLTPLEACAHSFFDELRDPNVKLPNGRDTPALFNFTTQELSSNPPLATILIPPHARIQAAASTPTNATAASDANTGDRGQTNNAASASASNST
In assay [4] the target is T3, Ribosomal protein S6 kinase beta-1 (Homo sapiens, UniProt P23443). The experiment in a line: Inhibition of Ribosomal protein S6 kinase 1 (S6K1).
Target sequence in this assay (P23443 whole entry): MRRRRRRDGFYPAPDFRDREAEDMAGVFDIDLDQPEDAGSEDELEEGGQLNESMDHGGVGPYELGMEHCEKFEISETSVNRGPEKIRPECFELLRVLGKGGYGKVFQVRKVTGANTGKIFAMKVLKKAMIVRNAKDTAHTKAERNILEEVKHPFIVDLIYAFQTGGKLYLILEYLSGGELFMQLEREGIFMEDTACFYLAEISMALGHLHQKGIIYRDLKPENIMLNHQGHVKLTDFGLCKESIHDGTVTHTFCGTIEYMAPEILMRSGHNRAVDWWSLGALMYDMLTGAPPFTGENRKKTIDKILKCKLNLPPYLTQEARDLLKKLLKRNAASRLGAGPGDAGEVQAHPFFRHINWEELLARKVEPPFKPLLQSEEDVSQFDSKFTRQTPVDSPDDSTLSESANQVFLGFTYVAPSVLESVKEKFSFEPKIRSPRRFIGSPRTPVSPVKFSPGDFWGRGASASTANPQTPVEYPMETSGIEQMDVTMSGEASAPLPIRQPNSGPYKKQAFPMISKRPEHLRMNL
The target of assay [5] is Ribosomal protein S6 kinase alpha-3 (Homo sapiens) (UniProt P51812). The experiment in a line: Residual activity of Ribosomal S6 kinase 2 (RSK2) at 50 uM.
Chain of Ribosomal protein S6 kinase alpha-3 (Homo sapiens) (P51812 whole entry): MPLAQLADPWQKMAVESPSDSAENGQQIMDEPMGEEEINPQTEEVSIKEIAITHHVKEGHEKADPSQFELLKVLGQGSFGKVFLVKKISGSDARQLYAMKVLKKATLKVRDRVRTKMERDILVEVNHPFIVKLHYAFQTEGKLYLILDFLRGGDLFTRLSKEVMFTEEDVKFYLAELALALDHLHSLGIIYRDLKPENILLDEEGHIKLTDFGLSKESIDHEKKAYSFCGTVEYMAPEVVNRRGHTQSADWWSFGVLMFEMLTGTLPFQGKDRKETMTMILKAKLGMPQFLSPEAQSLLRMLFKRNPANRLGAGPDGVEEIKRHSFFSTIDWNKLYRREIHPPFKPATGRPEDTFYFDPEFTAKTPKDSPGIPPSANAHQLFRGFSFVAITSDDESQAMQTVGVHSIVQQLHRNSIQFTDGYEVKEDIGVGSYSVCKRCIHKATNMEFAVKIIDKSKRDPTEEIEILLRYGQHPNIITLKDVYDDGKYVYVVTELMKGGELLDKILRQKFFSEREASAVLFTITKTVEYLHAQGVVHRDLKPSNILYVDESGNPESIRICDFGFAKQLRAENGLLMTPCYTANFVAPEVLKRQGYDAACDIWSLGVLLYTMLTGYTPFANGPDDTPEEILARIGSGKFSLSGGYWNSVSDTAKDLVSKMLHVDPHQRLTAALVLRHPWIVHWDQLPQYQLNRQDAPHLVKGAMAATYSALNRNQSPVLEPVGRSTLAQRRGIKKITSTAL
The target of assay [6] is Ribosomal protein S6 kinase alpha-5 (Homo sapiens) (UniProt O75582). Description: Residual activity of MSK-1 kinase (MSK1) at 50 uM.
Chain of Ribosomal protein S6 kinase alpha-5 (Homo sapiens) (O75582 whole entry, looked up): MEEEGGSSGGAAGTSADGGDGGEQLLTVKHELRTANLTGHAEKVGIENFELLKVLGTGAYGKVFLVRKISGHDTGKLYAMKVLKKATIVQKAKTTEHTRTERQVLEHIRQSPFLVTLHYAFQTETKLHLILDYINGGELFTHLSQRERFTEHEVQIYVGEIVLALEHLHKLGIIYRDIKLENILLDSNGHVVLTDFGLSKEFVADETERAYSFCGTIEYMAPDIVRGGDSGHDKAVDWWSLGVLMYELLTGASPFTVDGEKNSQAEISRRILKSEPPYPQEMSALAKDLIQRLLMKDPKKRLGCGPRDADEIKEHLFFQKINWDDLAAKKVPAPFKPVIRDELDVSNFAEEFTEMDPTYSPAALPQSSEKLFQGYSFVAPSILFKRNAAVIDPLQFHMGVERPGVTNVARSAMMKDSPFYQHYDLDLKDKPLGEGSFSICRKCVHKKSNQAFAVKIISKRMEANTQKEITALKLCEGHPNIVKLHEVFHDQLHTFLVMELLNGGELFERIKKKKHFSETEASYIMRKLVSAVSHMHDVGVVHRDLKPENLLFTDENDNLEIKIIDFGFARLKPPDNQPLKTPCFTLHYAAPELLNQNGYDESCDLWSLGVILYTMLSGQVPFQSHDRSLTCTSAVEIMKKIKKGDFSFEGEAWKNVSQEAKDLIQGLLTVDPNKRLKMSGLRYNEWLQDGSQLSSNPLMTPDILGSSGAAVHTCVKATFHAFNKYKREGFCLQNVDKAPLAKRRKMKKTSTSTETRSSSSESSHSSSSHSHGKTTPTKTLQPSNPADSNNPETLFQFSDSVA
Assay [7] addresses T3, Ribosomal protein S6 kinase beta-1. The note with it: 50 uM.
Target sequence in this assay (P23443 whole entry, looked up): as the sequence (P23443 whole entry) above
Description: Inhibition of Ribosomal protein S6 kinase 1 (S6K1) at 50 uM
In assay [8] the target is Protein kinase C alpha type (Homo sapiens) (UniProt P17252). The experiment in a line: Residual activity of Protein kinase C alpha (PKCalpha) at 50 uM.
Assay [9] concerns the target T4, Serine/threonine-protein kinase Sgk1 (Homo sapiens) (UniProt O00141).
T4 sequence (whole entry): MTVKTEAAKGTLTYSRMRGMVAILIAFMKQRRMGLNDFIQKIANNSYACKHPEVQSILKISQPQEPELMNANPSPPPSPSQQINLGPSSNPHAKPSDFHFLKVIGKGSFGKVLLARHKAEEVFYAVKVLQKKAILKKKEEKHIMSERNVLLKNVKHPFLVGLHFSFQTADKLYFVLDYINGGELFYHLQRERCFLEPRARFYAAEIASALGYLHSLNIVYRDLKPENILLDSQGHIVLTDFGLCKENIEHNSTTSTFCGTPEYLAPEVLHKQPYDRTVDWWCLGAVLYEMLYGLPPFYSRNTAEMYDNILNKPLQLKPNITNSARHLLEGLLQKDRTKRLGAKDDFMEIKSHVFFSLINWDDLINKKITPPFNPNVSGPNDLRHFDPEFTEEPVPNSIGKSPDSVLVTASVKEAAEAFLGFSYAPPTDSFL
The experiment in a line: Residual activity of Serum/glucocorticoid regulated kinase (SGK) at 50 uM.

The target of assay [10] is T1, AMP-activated protein kinase, AMPK (Homo sapiens). The experiment in a line: Residual activity of AMP-activated Protein Kinase (AMPK) at 1 uM.
The target of assay [11] is Ribosomal protein S6 kinase alpha-3 (Homo sapiens) (UniProt P51812). The experiment in a line: Residual activity of Ribosomal S6 kinase 2 (RSK2) at 1 uM.

Regarding `CN1C(=O)C(c2c[nH]c3ccccc23)=C(c2cn(CCCN)c3ccccc23)C1=O`, the residual activity is 88% in [1]; 93% in assay [2]; 94% in assay [3]; 106% in assay [5]; 90% in assay [6]; 28% in assay [7]. The residual activity in assay [8] was found to be 66%; in assay [9], 109%. It took 25 µM to reach half-maximal inhibition in [4] (IC50).
Consider `CN(C)CCCn1cc(C2=C(c3c[nH]c4ccccc34)C(=O)NC2=O)c2ccccc21`, for which the residual activity turned out to be 54% in assay [10] and 9% in [11].

These data come from ChEMBL document CHEMBL1139630, “Structure-activity relationship of N-methyl-bisindolylmaleimide derivatives as cell death inhibitors” (Bioorg Med Chem Lett, 2005).
